Consider five compounds from patent publication US20050113371A1, “Antifungal agent for topical use” (priority 2002, published 2005).

Each structure is given as a SMILES string. Read-outs that look alike come from different tables or passages of the source. Where only a bound is given, the exact number is not on record here.

One data set has as its system Trichophyton rubrum. Kind of data set: Antifungal activity on Sabouraud agar medium, MIC and FIC index (Test Examples 1 and 2). It counts as cell-based. Particulars: for FIC index obtained by the combination of amorolfine hydrochloride with another medicine: Test Example 1, amorolfine hydrochloride + medicine at mass ratio 1:1; for MIC: Trichophyton rubrum, 168 h, read-out: Minimum inhibitory concentration (MIC). The procedure: (§1) Amorolfine hydrochloride and each specimen (hereinafter referred to as “medicine”) at a mass ratio of 1:1 were dissolved in dimethyl sulfoxide (DMSO). Two-fold dilution series were prepared with DMSO. In the determination of the antifungal activity, the medicine and the medium were mixed together at a ratio of 1:99.
(§2) Sabouraud agar medium (Eiken) was used as a susceptibility determination medium. A microbe suspension containing 10^6 spores/mL of Candida albicans or about 10^6 conidia/mL of ringworm fungus was prepared. 5 μl of the suspension was inoculated on the Sabouraud agar medium containing the medicine with a micro-planter (a product of Sakuma Seisakusho). Candida albicans was cultured for 2 days and the tinea was cultured for 7 days. […]

Data set [1] has as its system Trichophyton mentagrophytes. The description is as above. It counts as cell-based. The settings on record: for FIC index obtained by the combination of amorolfine hydrochloride with another medicine: Test Example 1, amorolfine hydrochloride + medicine at mass ratio 1:1; for MIC: Trichophyton mentagrophytes, 168 h, read-out: Minimum inhibitory concentration (MIC). The procedure: as §1, §2

The subject of a further data set is Candida albicans. Described as above. It counts as cell-based. Particulars: for FIC index obtained by the combination of amorolfine hydrochloride with another medicine: Test Example 1, amorolfine hydrochloride + medicine at mass ratio 1:1; for MIC: Candida albicans, 48 h, read-out: Minimum inhibitory concentration (MIC). The procedure:
as §1
Sabouraud agar medium (Eiken) was used as a susceptibility determination medium. A microbe suspension containing 10^6 spores/mL of Candida albicans or about 10^6 conidia/mL of ringworm fungus was prepared. 5 μl of the suspension was inoculated on the Sabouraud agar medium containing the medicine with a micro-planter (a product of Sakuma Seisakusho). Candida albicans was cultured for 2 days and the tinea was cultured for 7 days.
The effect obtained by the combination was judged on the basis of the following standards (FIC index): • >2: antagonism • 2>and 1<: additive action • 1>: potentiation
(1) Amorolfine hydrochloride and each specimen (hereinafter referred to as “medicine”) at a mass ratio of 100:1 to 1:100 were dissolved in dimethyl sulfoxide (DMSO). Two-fold dilution series were prepared with DMSO. In the determination of the antifungal activity, the medicine and the medium were mixed together at a ratio of 1:99.
(2) Amorolfine hydrochloride and each specimen (hereinafter referred to as “medicine”) at a mass ratio of 1:3 to 3:1 were dissolved in dimethyl sulfoxide (DMSO). Two-fold dilution series were prepared with DMSO. In the determination of the antifungal activity, the medicine and the medium were mixed together at a ratio of 1:99.
Sabouraud agar medium (Eiken) was used as a susceptibility determination medium. A microbe suspension containing 10^6 spores/mL of Candida albicans or about 10^6 conidia/mL of each of two kinds of ringworm fungus was prepared. 5 μl of the suspension was inoculated on the Sabouraud agar medium with a micro-planter (a product of Sakuma Seisakusho). Candida albicans was cultured for 2 days and the Tinea fungus was cultured for 7 days.

For data set [2] the following is noted: cited from earlier work.
The conditions of data set [3]: cited from earlier work. The source holds these as a separate data set.
The conditions of data set [4]: cited from earlier work. This is another data set of the same source.
For data set [5] the following is noted: rats, oral; administration from before the pregnancy to the lactation period or perinatal period/lactation period; cited from earlier work.
Data set [6] has as its system Trichophyton mentagrophytes TIMM 1189. The experiment in a line: Tinea infection model of guinea pigs, culture test (Test Example 3). It is filed as in vivo. The settings on record: 0.75 mass % in polyethylene glycol 400 (combination 1:2), 0.1 mL once a day for 5 days from 3 days after inoculation; culture on 5th day after last application; 10 loci. The procedure:
Amorolfine hydrochloride and each specimen (hereinafter referred to as “medicine”) at a mass ratio of 1:2 were dissolved in polyethylene glycol 400 to obtain a final concentration of 0.75% mass ratio. Each of amorolfine hydrochloride and the medicines was separately dissolved in polyethylene glycol 400 to obtain solutions having the final concentration of 0.75 mass %.
Male Hartley guinea pigs (Japan SLC Co., Ltd.; 6 weeks) were used. In the course of the test, they were kept separately from one another in an isolator (Negative rack, CLEA JAPAN, Inc.). They could freely have a solid food (G standard, Nihon Nosan Kogyo KK) and water.
Trichophyton mentagrophytes TIMM 1189 was cultured on slant Sabouraud glucose agar medium at 27° C. for 14 days. Then, sterilized saline containing 0.05% of Tween 80 was added thereto to obtain conidia. The resultant suspension was filtered through a cell strainer (FALCON Co., Ltd.) to remove large mycelian masses. The number of conidia was counted with hemocytometer. The conidia were diluted to 4×10^7/mL with sterilized saline containing 0.05% of Tween 80 to obtain the conidial suspension for inoculation.
The back of each guinea pig was shaved. Then, a circular inoculation part having a diameter of 2 cm was positioned on both sides of the spinal column. A gummed tape was applied thereto and then peeled. These steps was repeated three times, whereby the hair was pulled out of the skin in both parts and, at the same time, the top of the corneous layer of the skin was peeled off. The remaining hair was completely removed with tweezers. […]
When at least one of the 10 small pieces taken from one inoculated locus of the skin was the positive after the culture, the inoculated locus was judged to be positive. The ratio of positive loci after culture was calculated from the number of the cultured positive pieces in the total 10 inoculated loci in each experiment group.
The number of the cultured positive small pieces in the inoculated portion was scored as will be described below to determine the infection. […]

The conditions of data set [7]: rabbit, in vivo; cited from earlier work.
The next data set concerns Candida. Particulars: cited from earlier work.
For data set [8] the following is noted: in vivo; cited from earlier work.
Where [9] appears, read: Test Example 2, geometric mean MIC of two strains, cultured 7 days.

Regarding `N#C/C(=C1/SCC(c2ccccc2Cl)S1)n1ccnc1` (centres unmarked) [Lanoconazole], the “FIC index obtained by the combination of amorolfine hydrochloride with another medicine” value (“FIC index obtained by the combination” for short) with Trichophyton rubrum (cultured 7 days) was 1.25; in data set [1] (cultured 7 days), 1.00; in the data set on Candida albicans (cultured 2 days) it was 0.53.

With `CCC(C)(C)c1ccc(CC(C)CN2CC(C)OC(C)C2)cc1.Cl` (racemic) [amorolfine hydrochloride, (±)-cis-2,6-dimethyl-4-[3-[4-(1,1-dimethylpropyl)phenyl]-2-methylpropyl]-morpholine monohydrochloride], the LD50 in data set [2] (rats, intraperitoneal injection, female) was 465 mg/kg; in data set [2] (rats, intraperitoneal injection, male) it was 468 mg/kg; in [2] (rats, oral, female), 1756 mg/kg; in data set [2] (rats, oral, male), 1960 mg/kg; in [2] (rats, subcutaneous, male and female), above 2000 mg/kg; in data set [3] (mice, intraperitoneal injection, female), 239 mg/kg. Besides, the LD50 is reported as 205 mg/kg in data set [3] (mice, intraperitoneal injection, male); 112 mg/kg in data set [3] (mice, intravenous injection, female); 141 mg/kg in data set [3] (mice, intravenous injection, male); 2406 mg/kg in data set [3] (mice, oral, female); 2514 mg/kg in data set [3] (mice, oral, male); above 5000 mg/kg in [3] (mice, subcutaneous, male and female). In addition, the 50% lethal dose (LD50) is on record as above 1000 mg/kg in [4] (dogs, oral, male and female); above 2500 mg/kg in data set [4] (dogs, subcutaneous, male). In addition, the MIC with Trichophyton rubrum came out at 0.016 µg/mL; in data set [1] it was 0.031 µg/mL; in the data set with Candida albicans, 1 µg/mL. In addition, the “dose with an influence on the survival rate of newborn babies” value in data set [5] was “at least 10 mg/kg/day”. In addition, the “rate of positive loci after culture” value in data set [6] is listed as 100%.

For the compound `Cc1cc(C2CCCCC2)n(O)c(=O)c1.NCCO` [Ciclopyrox olamine], the “FIC index obtained by the combination” value stood at 1.0 in the data set on Trichophyton rubrum (cultured 7 days), 1.0 in data set [1] (cultured 7 days) and 0.38 in the data set on Candida albicans (cultured 2 days).

With `CN(Cc1ccc(C(C)(C)C)cc1)Cc1cccc2ccccc12.Cl` [butenafine hydrochloride, N-4-tert-butylbenzyl-N-methyl-1-naphthalenemethylamine hydrochloride], the LD50 is given as at least 100 mg/kg in [2] (Wistar rats, intravenous injection, female); above 100 mg/kg in data set [2] (Wistar rats, intravenous injection, male); above 4000 mg/kg in data set [2] (Wistar rats, oral, male and female); above 1000 mg/kg in data set [2] (Wistar rats, percutaneous, male and female); above 150 mg/kg in data set [2] (Wistar rats, subcutaneous, male and female); above 140 mg/kg in data set [3] (ICR male and female mice, intravenous injection). Besides, the LD50 in data set [3] (ICR male and female mice, oral) is listed as above 5000 mg/kg; in data set [3] (ICR male and female mice, percutaneous), above 800 mg/kg; in data set [3] (ICR male and female mice, subcutaneous), above 200 mg/kg; in data set [4] (Beagle dogs, male, oral), above 5000 mg/kg; in data set [4] (Beagle dogs, male, percutaneous), above 100 mg/kg. For the same compound, the “FIC index obtained by the combination” value in the data set with Trichophyton rubrum (cultured 7 days) was found to be 0.38; in data set [1] (cultured 7 days), 0.49; with Candida albicans (cultured 2 days) it was 0.38. Also, the MIC with Trichophyton rubrum (setting [9]) was 0.004 µg/mL; in data set [1] (setting [9]), 0.016 µg/mL; with Candida albicans (Test Example 2, geometric mean MIC of two strains, cultured 2 days), above 8 µg/mL. In addition, the localized irritation entry in data set [7] is recorded as “weak”. For the same compound, the “antifungal effect on Candida” value with Candida is recorded as “ineffective”. The “Minimum inhibitory concentration (MIC)” value in the data set with Candida albicans (Test Example 2, geometric mean MIC of two strains, cultured 2 days, listed as B, hydrochloride) was above 8.0 µg/mL. Also, the “toxicity on the reproduction or development” value in [8] is “No toxicity was found”. In addition, in data set [6], the “rate of positive loci after culture” value stood at 100%.

As to `Cc1cccc(N(C)C(=S)Oc2ccc3ccccc3c2)c1` [Tolnaftate], the figures for the “FIC index obtained by the combination” value (in the data set on Trichophyton rubrum (cultured 7 days); in data set [1] (cultured 7 days); in the data set on Candida albicans (cultured 2 days)) were 0.35, 1.25 and 0.38, respectively.

By LD50 is commonly meant the dose at which mortality reaches 50%.
